Measurements published in US9834525B2, “Inhibitors of paxillin function and related compositions and methods” (UNIVERSITY OF TENNESSEE RESEARCH FOUNDATION, priority 2015, dated 2017).
Entries after “also recorded” stand apart in the source; their conditions may differ.

Tests used:
[1] = biological target: T1, serotonin receptor 5-HT2B (Homo sapiens, UniProt P41595); experiment: Off-target counter screening, ExpresS Profile; assay type: binding; settings: 10 μM
T1 construct: purchased Eurofins, Cerep Panlabs ExpresS Profile
Procedure: (§1) Counter-screen assays to determine “off-target” effects are conducted at an early stage to mitigate toxicological risk of new chemical entities. Compound (II-4) (10 μM) counter screening was conducted against a wide variety of target receptors, enzymes, and ion channels using a serum-free cell-based assay, ExpresS Profile (Eurofins, Cerep Panlabs). Inhibition >50% is considered a “positive” interaction.

[2] = biological target: T2, melatonin-1 receptor (MT-1) (Homo sapiens, UniProt P48039); experiment: Off-target counter screening, ExpresS Profile; assay type: binding; settings: 10 μM
T2 construct: purchased Eurofins, Cerep Panlabs ExpresS Profile
Procedure: as §1

[3] = test system: ERK1/2; experiment: Western blot of VEGF-induced ERK1/2 phosphorylation in REC; assay type: cell-based, human; settings: REC under VEGF; compound (II-4) 500 nM, SU6656 1 μM
Procedure: (§2) REC, Mel 270, OMM 2.5 under Hepatocyte Growth Factor (HGF) or Vascular Endothelial Growth Factor (VEGF) stimulation conditions: Cell lysates were collected in RIPA lysis buffer (50 mM Tris-HCl, pH 7.4, 150 mM NaCl, 2 mM EDTA, 1% Nonidet P-40, 0.1% SDS) with protease 1× inhibitor cocktail (Roche; Indianapolis, Ind.). Lysates were kept on ice and centrifuged at 10,000×g×10 minutes and total protein was measured using the BCA assay (Pierce, Rockford, Ill.). Protein samples were mixed with 4×LDS loading buffer with 2.5% 2-mercaptoethanol (Sigma-Aldrich), heated to 70° C. for 10 minutes, and loaded on NuPAGE 4-12% Bis-Tris gel (Invitrogen, Carlsbad, Calif.). Immunoblotting was performed with nitrocellulose membranes (Bio-Rad, Hercules, Calif.) at 170-mA start and 110-mA end at 25 V for two hours in NuPAGE transfer buffer (Invitrogen) containing 20% methanol. Membranes were blocked using Odyssey blocking buffer (LI-COR; Lincoln, Nebr.) for one hour at room temperature with gentle shaking Membranes were then incubated at 4° C. with specific primary antibodies (1:1000) overnight. Cellular protein was normalized using rabbit-GAPDH or mouse-α-Tubulin [1:20,000] (Cell Signaling, Danvers, Mass.; LI-COR, respectively). […] Dual-channel infrared scan and quantitation of immunoblots were conducted using the ODYSSEY Sa infrared imaging system with Image Studio (Ver. 3.1.4) (LI-COR). […]

[4] = test system: Pkd1 V/V mouse; experiment: Dermal microemulsion delivery to Pkd1 cystic mice (ADPKD model); assay type: in vivo; settings: dermal application as microemulsion, neonatal Pkd1 mice
Excerpt: Paxillin is abnormally expressed in cystic epithelial cells in a mouse model of ADPKD. […] For this reason, paxillin can be considered to act as a “rheostat” that can be targeted to curtail cystogenesis.
The paxillin inhibitor compound (II-4) inactivates phosphorylation at Y118 on paxillin using retinal endothelial cells. Compound (II-4) has been formulated as a microemulsion for non-invasive delivery to neonatal Pkd1 non-cystic and cystic mice and it has been observed that renal cystic disease was attenuated as measured by total kidney-to-body weight ratio.
FIG. 4: Paxillin in ADPKD kidneys. (A) Immunoblot of total paxillin in protein lysates from non-cystic Pkd1^+/+ (n=5) and cystic Pkd1^V/V (n=3) mouse kidneys at post-natal day 11 after 8 days of dermal application of compound (II-4) microemulsion solution. GAPDH was used as a loading control. Densitometry of the bands normalized to GAPDH is shown for (B) paxillin and (C) phospho-paxillin (C). * P<0.005 difference between groups.

[5] = test system: FAK (Y397, Y576/577, Y925); experiment: Western blot of VEGF-induced FAK phosphorylation in REC; assay type: cell-based, human; settings: REC under VEGF; compound (II-4) 500 nM, SU6656 1 μM
Procedure: as §2

T1 sequence (P41595 whole entry): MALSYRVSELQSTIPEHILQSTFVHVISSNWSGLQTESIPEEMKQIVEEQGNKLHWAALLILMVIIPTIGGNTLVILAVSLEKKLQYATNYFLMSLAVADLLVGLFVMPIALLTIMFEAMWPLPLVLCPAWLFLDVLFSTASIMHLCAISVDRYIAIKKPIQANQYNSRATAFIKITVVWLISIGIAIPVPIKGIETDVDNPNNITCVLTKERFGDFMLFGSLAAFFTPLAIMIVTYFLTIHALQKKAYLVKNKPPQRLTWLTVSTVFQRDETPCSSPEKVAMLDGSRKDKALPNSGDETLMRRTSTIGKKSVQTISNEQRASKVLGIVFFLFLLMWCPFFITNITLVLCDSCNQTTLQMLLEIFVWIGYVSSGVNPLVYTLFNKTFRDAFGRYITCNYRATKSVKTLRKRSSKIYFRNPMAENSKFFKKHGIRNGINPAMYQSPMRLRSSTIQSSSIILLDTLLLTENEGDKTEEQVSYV
T2 sequence (P48039 whole entry): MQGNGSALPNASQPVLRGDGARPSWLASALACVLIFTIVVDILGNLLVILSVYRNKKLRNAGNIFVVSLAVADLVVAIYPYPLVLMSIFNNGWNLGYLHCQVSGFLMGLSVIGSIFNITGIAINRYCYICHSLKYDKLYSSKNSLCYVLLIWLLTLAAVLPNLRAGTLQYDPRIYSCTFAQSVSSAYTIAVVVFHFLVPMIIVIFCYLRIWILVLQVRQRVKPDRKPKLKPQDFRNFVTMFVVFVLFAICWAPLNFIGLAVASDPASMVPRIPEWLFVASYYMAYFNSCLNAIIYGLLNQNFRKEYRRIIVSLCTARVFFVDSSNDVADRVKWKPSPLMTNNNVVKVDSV

COc1cc(C2OC(=O)Nc3c2ccc2ccccc32)cc(OC)c1OC (centres unmarked) [compound II-4]
off-target interaction, 5-HT2B (inhibition >50% considered positive) [1]: possible binding targets | off-target interaction, MT-1 (inhibition >50% considered positive) [2]: possible binding targets | VEGF-dependent ERK1/2 phosphorylation [3]: No significant change; also recorded: Neither SU6656 nor compound (II-4) decreased | renal cystic disease / cystic disease progression (total kidney-to-body weight ratio) [4]: functional reduction in cystic disease progression; also recorded: attenuated | VEGF-induced FAK activation (Y397, Y925) [5]: independent of both FAK Y397 autophosphorylation and Src-driven FAK Y925; also recorded: not FAK Y925 activation
